The values that follow come from patent US20230048888A1, “USE OF TRIAZOLOTRIAZINE DERIVATIVE IN TREATMENT OF DISEASES” (ZHEJIANG VIMGREEN PHARMACEUTICALS, LTD., priority 2019, published 2023).

The nature of data set [1]: Pharmacokinetics of Compounds 27, 16, 14 and 22 in SD rats. The format is in vivo. Conditions: for AUC(0-t) / Cmax / half-life / clearance: Sprague-Dawley, rat, in vivo; for clearance: read-out: Cl—pred (converted). From the text:
WinNonlin® 6.4 was used as the calculation software for PK parameters.

Data set [2] is described as follows: Pharmacokinetics of test compounds in SD rats (15.2; IV and PO, mixed administration). The format is in vivo. Conditions: male, Sprague-Dawley, rat, plasma; SD rats, PO, 2 mg/kg, mixed administration (6 compounds per group). As to the method: Administration dose: the compounds in this group were all administered in a mixed way, with 6 compounds in each group for mixed PO administration.
Blood was collected based on the blood collection points in the test protocol. 50 μL of plasma sample was added with acetonitrile (containing 5 ng/mL Verapamil) being 3 folds of the volume thereof; the resulting mixture was vortexed for 30 s, and then centrifuged for 15 min at 15,000 rpm at 4° C.; and 10μ L of supernatant was taken for LC-MS/MS analysis.
For each compound, 3 male SD rats weighing 200-220 g were fasted for one night before dosage, but had access to water.
Orally intragastric administration: before intragastric administration and at 0.083 h, 0.25 h, 0.5 h, 1 h, 2 h, 4 h, 8 h and 24 h after administration (for Compounds 40, 27, 40 and 47), or at 0.25 h, 0.5 h, 1 h, 4 h, 6 h and 8 h after administration (for Compounds 44 and 48), orbital blood was collected and put in a test tube that was treated with heparin sodium, and after centrifugation, the supernatant plasma was collected for LC-MS/MS analysis.
The plasma samples were processed according to the method for “sample treatment” and then analyzed by LC-MS/MS, accompanied with the standard curve and quality control samples. At a time point when the upper limit of quantification was exceeded, the samples were diluted 10 or 100 folds for analysis. All measured data were collected and processed by Analyst 1.6.3 software, and the data were calculated and processed with Microsoft Excel. With DAS 3.2.8 software, the pharmacokinetic parameters were calculated by the statistical moment method. The pharmacokinetic parameters mainly include Tmax, t1/2, Cmax, AUC(0-t), etc.

The next data set concerns the target T1, adenosine receptors A2A (Homo sapiens, UniProt P29274).
T1 construct: expressed in transfected cells; host or cells: HEK293 (hADORA2A-HEK293)
As to the kind of experiment: TR-FRET-based cAMP accumulation assay in hADORA2A-HEK293 cells. The format is cell-based. Conditions: NECA at EC80, hADORA2A-HEK293, read-out: A2AR activity (IC50). As to the method:
The inhibitory effects of the test compounds on the adenosine receptors A2A were evaluated by TR-FRET-based cAMP accumulation assay. The method included, in HEK293 cells (hADORA2A-HEK293) expressing A2AR, the production of cAMP stimulated by NECA and the inhibitory effect of A2A receptor antagonists on cAMP. All cells were cultured in a complete medium at 37° C. in the presence of 5% CO2. After being digested with trypsin, the cells were collected by centrifugation at 200 g for 5 minutes. The cells were resuspended in a fresh complete medium, and then the cell viability was counted by a trypan blue exclusion method. […] The cells were diluted with Hank's buffer solution containing HEPES (5 mM), BSA stabilizer (0.1%) and Rolipram (10 μM), then added to a 384-well white non-transparent plate (cells/well, 10 μl/well), and incubated with the test compound at an appropriate concentration (11 concentrations) for 20 minutes at room temperature. Then, the A2A receptor agonist NECA (final concentration=EC80, which was determined in the same experiment performed earlier) was added to the sample, and the sample was incubated again at 37° C. for 30 minutes.
An inhibition rate (%) was calculated according to the following formula, and an IC50 value was calculated from a concentration-inhibition (%) curve after log conversion.
A curve corresponding to the dose was fitted by using XLfit software and the IC50 was determined.
On the technique in general: TR-FRET usually uses a lanthanide donor and a delayed reading to cut background.

T1 sequence (P29274 whole entry): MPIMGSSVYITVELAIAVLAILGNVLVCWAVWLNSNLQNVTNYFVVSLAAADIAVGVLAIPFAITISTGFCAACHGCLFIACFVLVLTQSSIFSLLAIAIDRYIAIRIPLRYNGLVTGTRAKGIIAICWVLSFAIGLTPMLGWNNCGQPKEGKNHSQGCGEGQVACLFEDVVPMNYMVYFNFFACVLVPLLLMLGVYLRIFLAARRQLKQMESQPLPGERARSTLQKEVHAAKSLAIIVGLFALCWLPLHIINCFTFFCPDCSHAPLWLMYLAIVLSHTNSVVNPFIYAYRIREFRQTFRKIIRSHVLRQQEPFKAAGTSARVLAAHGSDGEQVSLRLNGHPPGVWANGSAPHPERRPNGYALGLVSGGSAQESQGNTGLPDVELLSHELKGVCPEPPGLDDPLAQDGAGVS

Usually AUC(0-t) stands for exposure summed from dosing to a finite time, without extrapolation to infinity. Low readings indicate less exposure, high ones more exposure. In general, Cmax refers to the highest concentration seen after dosing. The term half-life denotes the time needed for the level to fall by half in the phase considered. Read a low half-life as rapid decline. `Nc1nc(NCCc2ccc(OCCN3CC[C@H](F)C3)cc2)nc2nc(-c3ccco3)nn12` [Compound 16, (S)-N5-(4-(2-(3-fluoropyrrolidin-1-yl)ethoxy)phenethyl)-2-(furan-2-yl)-[1,2,4]triazolo[1,5-a][1,3,5]triazine-5,7-diamine]: in data set [1] (PO, dose 10 (mg/kg)), the “Cl—F—pred” value was determined as 233 mL/min/kg, the AUC(0-t) came to 758 ng·h/mL, the Cmax came to 258 ng/mL and the half-life was 4.78 h. In data set [1] (IV, dose 1 (mg/kg)), the AUC(0-t) was 536 ng·h/mL, the Cmax came to 986 ng/mL, the half-life is 0.61 h and the clearance is 31.5 mL/min/kg.
For `COCCN(C)c1ccc(CCNc2nc(N)n3nc(-c4ccco4)nc3n2)cc1` [Compound 25, 2-(furan-2-yl)-N5-(4-((2-methoxyethyl)(methyl)amino)phenethyl)-[1,2,4]triazolo[1,5-a][1,3,5]triazine-5,7-diamine], the area under the curve AUC(0-t) in data set [2] turned out to be 142 ng·h/mL.
As to `N#CCn1nnc(-c2ccc(CCNc3nc(N)n4nc(-c5ccco5)nc4n3)cc2)n1` [Compound 44, 2-(5-(4-(2-(7-amino-2-(furan-2-yl)-[1,2,4]triazolo[1,5-a][1,3,5]triazine-5-ylamino)ethyl)-phenyl)-2H-tetrazol-2-yl)acetonitrile], the AUC(0-t) in data set [2] stood at 341 ng·h/mL.
For `CCCn1nnc(-c2ccc(CCNc3nc(N)n4nc(-c5ccco5)nc4n3)cc2)n1` [Compound 43, N5-(4-(2-propyl-2H-tetrazol-5-yl)phenethyl)-2-(furan-2-yl)-[1,2,4]triazolo[1,5-a][1,3,5]triazine-5,7-diamine], the AUC(0-t) in data set [2] is 315 ng·h/mL.
What is called IC50 is the midpoint of a concentration-inhibition curve. For the molecule `Nc1nc(NCCc2ccc(NC3CCOCC3)cc2)nc2nc(-c3ccco3)nn12` [Compound 18, 2-(furan-2-yl)-N5-(4-((tetrahydro-2H-pyran-4-yl)amino)phenethyl)-[1,2,4]triazolo[1,5-a][1,3,5]triazine-5,7-diamine], on adenosine receptors A2A, the IC50 was 3.83 nM. In data set [2], the AUC(0-t) came out at 441 ng·h/mL.
Regarding `Nc1nc(NCCc2ccc(-c3ncccn3)cc2)nc2nc(-c3ccco3)nn12` [Compound 51, 2-(furan-2-yl)-N5-(4-(pyrimidin-2-yl)phenethyl)-[1,2,4]triazolo[1,5-a][1,3,5]triazine-5,7-diamine], in data set [2], the AUC(0-t) turned out to be 420 ng·h/mL.
Turning to `Nc1nc(NCCc2ccc(NC3COC3)cc2)nc2nc(-c3cccc(F)c3)nn12` [Compound 37, 2-(3-fluorophenyl)-N5-(4-(oxetan-3-ylamino)phenethyl)-[1,2,4]triazolo[1,5-a][1,3,5]triazine-5,7-diamine], the IC50 on adenosine receptors A2A amounted to 7.07 nM. Besides, the AUC(0-t) in data set [2] was 1830 ng·h/mL.
`Nc1nc(NCCc2ccc(-c3nnn(CC(F)(F)F)n3)cc2)nc2nc(-c3ccco3)nn12` [Compound 46, N5-(4-(2-(2,2,2-trifluoroethyl)-2H-tetrazol-5-yl)phenethyl)-2-(furan-2-yl)-[1,2,4]triazolo[1,5-a][1,3,5]triazine-5,7-diamine] came in with an AUC(0-t) in data set [2] of 739 ng·h/mL.
With `CN(C)C(=O)c1ccc(CCNc2nc(N)n3nc(-c4ccco4)nc3n2)cc1` [Compound 38, 4-(2-(7-amino-2-(furan-2-yl)-[1,2,4]triazolo[1,5-a][1,3,5]triazine-5-ylamino)ethyl)-N,N-dimethylbenzamide], the IC50 at adenosine receptors A2A was 8.71 nM.
Turning to `CC(C)n1nnc(-c2ccc(CCNc3nc(N)n4nc(-c5ccco5)nc4n3)cc2)n1` [Compound 42, N5-(4-(2-isopropyl-2H-tetrazol-5-yl)phenethyl)-2-(furan-2-yl)-[1,2,4]triazolo[1,5-a][1,3,5]triazine-5,7-diamine], the IC50 at adenosine receptors A2A amounted to 9.08 nM. In addition, the AUC(0-t) in data set [2] was found to be 818 ng·h/mL.
Turning to `COCCOCCOCCNc1ccc(CCNc2nc(N)n3nc(-c4ccco4)nc3n2)cc1` [Compound 29, 2-(furan-2-yl)-N5-(4-((2-(2-(2-methoxyethoxy)ethoxy)ethyl)amino)phenethyl)-[1,2,4]triazolo[1,5-a][1,3,5]triazine-5,7-diamine], the AUC(0-t) in data set [2] is 160 ng·h/mL.
For the molecule `COCCOCCNc1ccc(CCNc2nc(N)n3nc(-c4ccco4)nc3n2)cc1` [Compound 28, 2-(furan-2-yl)-N5-(4-((2-(2-methoxyethoxy)ethyl)amino)phenethyl)-[1,2,4]triazolo[1,5-a][1,3,5]triazine-5,7-diamine], the IC50 on adenosine receptors A2A amounted to 6.77 nM. The AUC(0-t) in data set [2] amounted to 757 ng·h/mL.
As for `COCCN(CCOC)c1ccc(CCNc2nc(N)n3nc(-c4ccco4)nc3n2)cc1` [Compound 21, N5-(4-(bis(2-methoxyethyl)amino)phenethyl)-2-(furan-2-yl)-[1,2,4]triazolo[1,5-a][1,3,5]triazine-5,7-diamine], the IC50 on adenosine receptors A2A was determined as 1.62 nM. Also, the exposure AUC(0-t) in data set [2] worked out at 603 ng·h/mL.
On to `N#Cc1ccc(CCNc2nc(N)n3nc(-c4ccco4)nc3n2)cc1` [Compound 45, 4-(2-(7-amino-2-(furan-2-yl)-[1,2,4]triazolo[1,5-a][1,3,5]triazine-5-ylamino)ethyl)-benzonitrile], for which the AUC(0-t) in data set [2] worked out at 718 ng·h/mL.
As to `Nc1nc(NCCc2ccc(OCCN3CCC(F)(F)C3)cc2)nc2nc(-c3ccco3)nn12` [Compound 14, N5-(4-(2-(3,3-difluoropyrrolidin-1-yl)ethoxy)phenethyl)-2-(furan-2-yl)-[1,2,4]triazolo[1,5-a][1,3,5]triazine-5,7-diamine], in data set [1] (PO, dose 10 (mg/kg)), the “Cl—F—pred” value amounted to 144 mL/min/kg, the F worked out at 17.90%, the AUC(0-t) stood at 1210 ng·h/mL and the Cmax is 574 ng/mL. For the same molecule, the half-life in data set [1] (PO, dose 10 (mg/kg)) was 3.05 h. Moreover, in data set [1] (IV, dose 1 (mg/kg)), the AUC(0-t) turned out to be 678 ng·h/mL, the peak level (Cmax) was 1680 ng/mL, the half-life is 0.44 h and the clearance was 24.7 mL/min/kg.
As to `Nc1nc(NCCc2ccc(-c3ccccn3)cc2)nc2nc(-c3ccco3)nn12` [Compound 48, 2-(furan-2-yl)-N5-(4-(pyridin-2-yl)phenethyl)-[1,2,4]triazolo[1,5-a][1,3,5]triazine-5,7-diamine], the AUC(0-t) in data set [2] was 597 ng·h/mL.
For the molecule `CC1(C(=O)Nc2ccc(CCNc3nc(N)n4nc(-c5ccco5)nc4n3)cc2)CCOCC1` [Compound 6, N-(4-(2-((7-amino-2-(furan-2-yl)-[1,2,4]triazolo[1,5-a][1,3,5]triazin-5-yl)amino)ethyl)phenyl)-4-methyltetrahydro-2H-pyran-4-carboxamide], the IC50 at adenosine receptors A2A is 9.24 nM.
As to `COCC(COC)Nc1ccc(CCNc2nc(N)n3nc(-c4ccco4)nc3n2)cc1` [Compound 35, N5-(4-(1,3-dimethoxypropane-2-ylamino)phenethyl)-2-(furan-2-yl)-[1,2,4]triazolo[1,5-a][1,3,5]triazine-5,7-diamine], on adenosine receptors A2A, the IC50 was 4.88 nM. In data set [2], this molecule returned an AUC(0-t) of 1600 ng·h/mL.
For `CCOCCNc1ccc(CCNc2nc(N)n3nc(-c4ccco4)nc3n2)cc1` [Compound 30, N5-(4-((2-ethoxyethyl)amino)phenethyl)-2-(furan-2-yl)-[1,2,4]triazolo[1,5-a][1,3,5]triazine-5,7-diamine], at adenosine receptors A2A, the IC50 came to 3.52 nM.
As for `Cn1cnc(-c2ccc(CCNc3nc(N)n4nc(-c5ccco5)nc4n3)cc2)n1` [Compound 52, 2-(furan-2-yl)-N5-(4-(1-methyl-1H-1,2,4-triazol-3-yl)phenethyl)-[1,2,4]triazolo[1,5-a][1,3,5]triazine-5,7-diamine], the AUC(0-t) in data set [2] was 388 ng·h/mL.
